Values of other authors as cited in US20250064831A1 (Acerus Biopharma Inc., priority 2012, published 2025).

How the values were obtained:
[1] = polyethylene glycol (200 mg/ml), high variations
[2] = progesterone/cyclodextrin powder mixtures, nasal
[3] = in vivo

Row | Compound | duration of serum level [1] | serum level decrease [2] | elimination half-lives [3]
1 | CC(=O)[C@H]1CC[C@H]2[C@@H]3CCC4=CC(=O)CC[C@]4(C)[C@H]3CC[C@]12C [progesterone] | at least 8 hours | ≤ 20 min | –
2 | CN(C)CC(=O)O[C@H]1CC[C@H]2[C@@H]3CCC4=CC(=O)CC[C@]4(C)[C@H]3CC[C@]12C [testosterone 17β-N,N-dimethylglycinate] | – | – | about 55 min
